Values quoted from earlier work as cited in PMC9276671, “A first-in-human Phase I dose-escalation trial of the novel therapeutic peptide, ALM201, demonstrates a favourable safety profile in unselected patients with ovarian cancer and other advanced solid tumours” (British Journal of Cancer, 2022).

Experiments:
cell cycle = conditions: protocol Table 2 (IC50 (nM)); ref Investigator brochure (IB); cited from earlier work
Text: (§1) ALM201 also had no effect on cytok ...

cell viability = conditions: protocol Table 2; ref Investigator brochure (IB); cited from earlier work
Text: as §1

tubulin = tested on: tubulin; set-up: method as in Investigator brochure (IB); conditions: ref Investigator brochure (IB), cited from earlier work; for IC50: protocol Table 2, read-out: Tubulin polymerisation IC50; for Tubulin polymerisation IC50: protocol Table 3
[1] = tested on: HMEC-1, a human vascular endothelial cell-line; conditions: protocol Table 3; ref Investigator brochure (IB); read-out: Wound scrape IC50; cited from earlier work
Text: page 37: Almac Discovery Confidential There are five main histological subtypes of ovarian cancer differing in tissue of origin, stage of presentation, sensitivity to chemotherapy, survival and driver genetic mutations. The most aggressive of these subtypes are the high grade serous tumours. […] ALM201 also had no effect on cytok ...

HMEC-1 = conditions: protocol Table 3; ref Investigator brochure (IB); read-out: Tube formation IC50; cited from earlier work
Text: as §1

proliferation = conditions: protocol Table 3; ref Investigator brochure (IB); cited from earlier work
Text: as §1

Compound | Cell cycle arrest (cell cycle) | IC50 (cell viability) | IC50 (tubulin) | IC50 [1] | IC50 (HMEC-1) | IC50 (proliferation) | Tubulin polymerisation IC50 (tubulin)
COc1ccc(C[C@@H](O)c2cc(OC)c(OC)c(OC)c2)cc1O [Combretastatin] | Yes | 0.2 nM | 360 nM | – | – | – | –
CCN(CC)CCNC(=O)c1c(C)[nH]c(/C=C2\C(=O)Nc3ccc(F)cc32)c1C [Sunitinib] | – | – | – | 8.9 nM | 4.4 nM | […] | No effect
CC[C@]1(O)C[C@@H]2CN(CCc3c([nH]c4ccccc34)[C@@](C(=O)OC)(c3cc4c(cc3OC)N(C)[C@H]3[C@@](O)(C(=O)OC)[C@H](OC(C)=O)[C@]5(CC)C=CCN6CC[C@]43[C@@H]65)C2)C1 [Vinblastine] | Yes | 0.02 nM | […] | – | – | – | –
Bevacizumab | – | – | – | 59 nM | 2400 nM | 158 nM | No effect
